Results from patent US11299453B2 (Universität zu Köln, priority 2017, dated 2022).

How the values were obtained:
[1] = test system: unpurified EBs of murine iPSCs; experiment: Flow cytometry (cTnT) and cell yield of unpurified EBs; format: cell-based; details: for cTnT+ CM population / fold increase of CM purity (cTnT+) compared to DMSO-treated control / reduction of total cell yield relative to DMSO control: day 9 to day 16: SM6 1 μM then 5 μM from day 14, puromycin 8 μg/ml
Protocol: Purifying the whole CM population including GFP-negative CMs in murine PSC-derived EBs was tested with SM6 as well. EBs from day 9 of differentiation were treated starting with 1 μM of SM6 for 5 days followed by treatment with 5 μM from day 14 until day 16 of differentiation. The percentage of CM population in EBs was monitored by flow cytometry and the amount of contaminating PSCs was quantified by colony formation assay as described above. Fluorescence images of PSC-derived cell aggregates were captured with a Zeiss Axiovert 200M fluorescence microscope and analyzed with Zeiss Axiovision 4.5 software.
Determination of CM purity in the cell population was performed by flow cytometric analysis. PSC-derived EBs or cardiac clusters were dissociated with 0.25% trypsin-EDTA. Dead cells were stained with LIVE/DEAD fixable dead cell stain kit (Life Technologies) prior to cell fixation using in 4% PFA for 15 min. Immunological staining of cardiac Troponin T (cTnT) was performed in order to detect the total CM population including GFP-negative CMs. […] An anti-cTnT mouse antibody (sc-20025, Santa Cruz, Dallas, USA) and the corresponding isotype control (sc-3878, Santa Cruz) were diluted 1:50 in 0.8% BSA in PBS with 1% saponin and incubated for 30 min at 4° C., respectively. After washing the cells with PBS, cells were incubated with an AF555-conjugated secondary antibody (1:100, A21422, Life Technologies) in 0.8% BSA and 1% saponin in PBS for 1 h at 4° C.
Cells were measured with an Attune acoustic focusing cytometer (Life Technologies) and data was analyzed with the Attune Cytometric software v1.2.5 (Life Technologies). Marker expression was analyzed in a gated population of 10^4 viable cells.
In order to determine whether it is possible to entirely replace puromycin pre-treatment with SM6 and thus circumvent the need for genetic manipulation of PSCs to enable CM selection, the SM6 was supplemented to the differentiation medium of miPSCs from day 9 onwards starting with a concentration of 1 μM which was increased to 5 μM from day 14 until day 16 of differentiation, as is schematically illustrated in FIG. 8a). Control cells received 0.025% DMSO or 8 μg/ml puromycin during this time period (day 9 to day 16 of differentiation).

[2] = test system: αPIG-AT25 miPSC-derived cardiomyocytes; experiment: Cell viability (PrestoBlue) of miPSC-derived cardiomyocytes; format: cell-based, murine
Protocol: The differentiation of transgenic mPSCs was initiated in mass cultures as briefly described below. One million cells were transferred per non-adhering 10 cm dish with 14 ml differentiation medium composed of Iscove's Modified Dulbecco's Medium (IMDM) with GlutaMAX (Life Technologies) supplemented with 20% FBS, 1×NEAA and 100 μM β-ME. Embryoid bodies (EBs) from day 2 of differentiation were transferred in a 250 ml spinner flask (CELLSPIN 250, Integra Biosciences, Fernwald, Germany) with a density of 3×10^4 EBs per 200 ml of differentiation medium. On the first 2 days of differentiation medium was supplemented with 50 μg/ml L-ascorbic acid phosphate (AA, Wako pure chemicals industry, Japan) in order to promote the development of cardiac cells. For the selection of GFP-expressing CMs, 50 ml of the medium was exchanged with fresh differentiation medium and 8 μg/ml puromycin (Life Technologies) were supplemented on day 9 of differentiation. Two days later, the cardiac clusters were transferred on non-adhering 10 cm dishes with fresh differentiation medium containing 8 μg/ml puromycin. In the further course of differentiation medium was exchanged every 2-3 days. If not otherwise specified, the purification of GFP-positive CMs with puromycin was continued until day 16 of differentiation. For single cell analyses and transfer of PSC-derived CMs on cell culture plates, cardiac clusters were dissociated with 0.25% trypsin-EDTA (Life Technologies) supplemented with 50 U/ml DNase I (AppliChem, Darmstadt, Germany) for 20-30 min at 37° C. The mPSC-derived CMs were filtered through a polyamide membrane with […] pore size (Sefar, Heiden, Switzerland). Cell numbers were determined with a Neubauer hemocytometer and cells were stored on ice until further use.
Serial dilutions of DMSO stock solutions of PluriSIn #1 (Sigma-Aldrich, catalog number SML0682) or one of small molecules SM1-SM10, were prepared from 20 mM stock solutions with cell culture medium. Murine PSCs were dissociated with 0.05% trypsin-EDTA, seeded on 0.1% gelatin-coated 96-well plates with a density of 5000 cells/well and cultured in maintenance medium supplemented with 1000 U/ml of mLIF. After 1 day, cells were incubated with 40 μM PluriSIn #1 and derivatives for 72 h or with 0.01-25 μM SMs for 48 h, respectively. For treatment of corresponding PSC-derived CMs with SMs, puromycin-selected miPSC-CMs from day 14 of differentiation were dissociated with 0.25% trypsin-EDTA as described above and plated on 96-well plates (5×10^4 cells/well) which were pre-coated with 5 μg/ml fibronectin (PromoCell, Heidelberg, Germany). After culturing miPSC-CMs with 8 μg/ml puromycin for 2 more days, they were incubated in differentiation medium supplemented with 0.1-100 μM of SMs for 48-72 h. Following small molecule treatment, cell viability was determined with PrestoBlue cell viability reagent (Life Technologies). To this end, cells were washed with PBS (with calcium and magnesium, Life Technologies) and incubated with PrestoBlue reagent diluted in cell culture medium for 40 min at 37° C.
Fluorescence intensities correlating with the number of viable cells in the wells were measured in black flat-bottom 96-well plates (Greiner Bio-One, Kremsmünster, Austria) with a GeniosPro microplate reader (Tecan, Männedorf, Schweiz).
The selectivity of compounds was investigated by comparing their cytotoxicity against undifferentiated iPSCs and iPSC-derived CMs. Murine iPSCs αPIG-AT25 were incubated for 48 h with compounds SM1, SM2, SM4, SM5, SM6 and SM8 in concentrations of 0.01 to 10 μM. Cell culture and cardiac differentiation were performed as described above. Experiments were run at least in quadruplicate. The cell viability was determined using PrestoBlue cell viability reagent.
The viability of salicylic diamine-treated CMs was confirmed by 72 h of exposure to concentrations of 0.01 μM, 0.1 μM, 1 μM, 10 μM and 25 μM of compounds SM1, SM2, SM4, SM5, SM6 and SM8.

SMILES: Oc1ccccc1CN[C@@H]1CCCC[C@H]1NCc1ccccc1O [SM6, (1R,2R)-N,N′-di(2-hydroxybenzyl)-1,2-diaminocyclohexane]
- fold higher yield of cTnT+ CMs compared to the treatment with puromycin ([1]; SM6 1 μM then 5 μM from day 14, p<0.01): 2.72±1.61 fold
- cTnT+ CM population [1]: 77.57±12.26%
- fold increase of CM purity (cTnT+) compared to DMSO-treated control [1]: 2.56±1.25 fold
- reduction of total cell yield relative to DMSO control [1]: 56.6±10.44%
- CM yield higher compared to the DMSO-treated control group ([1]; in three out of five experiments): 31-86%
- effect on the viability of cardiomyocytes ([2]; 10 μM, two day-treatment): no significant effect
- toxicity to differentiated cardiomyocytes ([2]; summary in description): not toxic

SMILES: Oc1c(CNC2CCCC[C@@H]2NCc2cccc(-c3ccccc3)c2O)cccc1-c1ccccc1 (stereo partly drawn) [SM8, (1S,2R)-N,N′-di[(2-hydroxy-3-phenyl)-benzyl]-1,2-diaminocyclohexane]
- decrease of cardiomyocyte viability, in average over SM1, SM4 and SM8 ([2]; 10 μM, 72 h of exposure): 79.79±14.72%

SMILES: COc1ccc(C[C@H](N)C(=O)N[C@H]2[C@@H](O)[C@H](n3cnc4c(N(C)C)ncnc43)O[C@@H]2CO)cc1 [puromycin, reference compound]
- cTnT+ CM population [1]: 93.26±3.05%
- fold increase of CM purity (cTnT+) compared to DMSO-treated control [1]: 3.08±1.42 fold
- reduction of total cell yield relative to DMSO control [1]: 92.17±3.53%
